“Also recorded” adds a separate entry of the source. Where two headings read alike, the source gives them in different places.
Tests used:
[1] = target: T1, human PARP1 (Homo sapiens, UniProt P09874); assay: PARP inhibitor assay (HT Fluorescent Homogeneous PARP Inhibition Assay Kit); type: biochemical; settings: score
T1 construct: purchased Trevigen
Method in brief: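 Human PARP1 with NAD and activated DNA, compounds at 10 μM final, 30 min at room temperature in dark. Resazurin/diaphorase cycling mix then added for 1 hr in dark before stop buffer; fluorescent homogeneous kit read-out.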

[2] = tested on: FOXO3; assay: qPCR analysis of FOXO3-regulated genes; type: cell-based, human; settings: for fold induction at 10 µM: Homo sapiens
Method in brief: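 WI-38 cells treated with compound at 10 μM for 24 h, followed by Cells-to-Ct RT-qPCR of FOXO3 target genes normalised to B2M, PPIA and GAPDH. FOXO3 or NRF2 dependence tested by prior 10 nM siRNA knockdown (36 h transfection, compound added ~24 h after replating).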

[3] = tested on: NRF2; assay: qPCR analysis of NRF2-regulated genes; type: cell-based, human; settings: for fold induction at 10 µM: Homo sapiens
Method in brief: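 WI-38 cells treated with compound at 10 μM for 24 hrs, then processed by Cells-to-Ct for RNA isolation, RT and qPCR of NRF2-regulated genes (HMOX1, NQO1, GCLC, GSTM1). Expression normalized to B2M, PPIA and GAPDH; siRNA knockdown of FOXO3 or NRF2 (10 nM) preceded treatment in some runs.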

[4] = tested on: C. elegans; assay: C. elegans lifespan assays (liquid and plate); type: in vivo, Caenorhabditis elegans; settings: for ILS at 60 µM / ILS at 66 µM: Caenorhabditis elegans
[5] = tested on: WI-38 cells; settings: no H2O2 stress, 10 uM; negative control 0.41% ± 0.23%
Experimental: WI-38 cells were seeded on 384-well plates for 24 hrs and then incubated with small molecules for 24 hrs. […] Images were collected on an INCell Analyzer 2000 (GE) and analyzed with the Developer software.

T1 sequence (P09874 whole entry): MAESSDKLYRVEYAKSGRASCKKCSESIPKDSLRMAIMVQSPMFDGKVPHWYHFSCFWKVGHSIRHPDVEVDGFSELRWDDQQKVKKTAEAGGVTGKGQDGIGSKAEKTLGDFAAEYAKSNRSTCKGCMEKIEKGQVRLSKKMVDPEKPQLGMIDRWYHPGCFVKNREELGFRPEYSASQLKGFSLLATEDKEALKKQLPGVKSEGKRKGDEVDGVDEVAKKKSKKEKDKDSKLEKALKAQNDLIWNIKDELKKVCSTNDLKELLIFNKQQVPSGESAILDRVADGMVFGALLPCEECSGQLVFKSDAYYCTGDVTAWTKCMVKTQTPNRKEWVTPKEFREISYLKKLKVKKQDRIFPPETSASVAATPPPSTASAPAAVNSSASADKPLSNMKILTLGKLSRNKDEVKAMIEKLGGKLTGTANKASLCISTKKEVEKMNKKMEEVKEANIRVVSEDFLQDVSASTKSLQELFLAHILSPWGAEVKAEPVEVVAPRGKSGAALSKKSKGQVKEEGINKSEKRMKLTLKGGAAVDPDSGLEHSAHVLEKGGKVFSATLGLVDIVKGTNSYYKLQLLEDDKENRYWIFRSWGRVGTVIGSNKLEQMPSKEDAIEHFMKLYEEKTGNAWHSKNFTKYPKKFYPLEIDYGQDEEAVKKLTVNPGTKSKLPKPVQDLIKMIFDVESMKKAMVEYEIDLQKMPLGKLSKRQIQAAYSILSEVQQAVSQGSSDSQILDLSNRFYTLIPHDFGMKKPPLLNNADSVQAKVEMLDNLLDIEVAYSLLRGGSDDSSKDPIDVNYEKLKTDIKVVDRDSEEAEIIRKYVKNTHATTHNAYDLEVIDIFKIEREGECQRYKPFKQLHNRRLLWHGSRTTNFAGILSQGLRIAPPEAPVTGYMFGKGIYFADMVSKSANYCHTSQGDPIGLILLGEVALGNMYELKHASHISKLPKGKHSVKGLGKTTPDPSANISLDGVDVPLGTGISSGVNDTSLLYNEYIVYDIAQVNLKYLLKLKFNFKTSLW

O=C(/C(=C/c1ccc(Cl)cc1)c1nc2ccccc2[nH]1)c1ccccc1 [Gr-4D]
L = PARP inhibition [1]: 0
Induction of at least two of five FOXO3-regulated genes (SOD2, GADD45A, CAT, DDB1, TXNIP) ([2]; 10 μM, 24 hrs, WI-38): could induce both FOXO3- and NRF2-regulated genes; also recorded: significant induction; also recorded: significant, induction
SOD2 expression, normalized fold change (FOXO3-regulated gene) ([2]; 10 μM, 24 hrs, WI-38 cells, qPCR, normalized to B2M, n = 4): SOD2 1.20, fold
E = Potential FOXO3 Activation ([2]; 2-point score): 0
fold induction at 10 µM ([2]; 24 h, Assay 10(m), at 10 uM, qPCR, read-out: Induction of FOXO3-regulated genes: CAT normalized fold-change): 1.37
fold induction at 10 µM ([2]; 24 h, Assay 10(m), at 10 uM, qPCR, read-out: Induction of FOXO3-regulated genes: DDB1 normalized fold-change): 1.41
fold induction at 10 µM ([2]; 24 h, Assay 10(m), at 10 uM, qPCR, read-out: Induction of FOXO3-regulated genes: GADD45A normalized fold-change): 2.11
fold induction at 10 µM ([2]; 24 h, Assay 10(m), at 10 uM, qPCR, read-out: Induction of FOXO3-regulated genes: SESN1 normalized fold-change): 2.16
fold induction at 10 µM ([2]; 24 h, Assay 10(m), at 10 uM, qPCR, read-out: Induction of FOXO3-regulated genes: SOD2 normalized fold-change): 1.2
fold induction at 10 µM ([2]; WI-38, 24 h, read-out: SESN1 expression): > 1.5
fold induction at 10 µM ([2]; 10 μM, 24 hrs, WI-38 cells, qPCR, normalized to B2M, n = 4, read-out: CAT expression, normalized fold change (FOXO3-regulated gene)): 1.37
fold induction at 10 µM ([2]; 10 μM, 24 hrs, WI-38 cells, qPCR, normalized to B2M, n = 4, read-out: DDB1 expression, normalized fold change (FOXO3-regulated gene)): 1.41
fold induction at 10 µM ([2]; 10 μM, 24 hrs, WI-38 cells, qPCR, normalized to B2M, n = 4, read-out: GADD45A expression, normalized fold change (FOXO3-regulated gene)): 2.11
fold induction at 10 µM ([2]; 10 μM, 24 hrs, WI-38 cells, qPCR, normalized to B2M, n = 4, read-out: SESN1 expression, normalized fold change (FOXO3-regulated gene)): 2.16
fold induction at 10 µM ([2]; WI-38 cells, 10 μM, 24 hrs, n=4, qPCR normalized by B2M, read-out: DDB1 Normalized fold change): 1.41
fold induction at 10 µM ([2]; WI-38 cells, 10 μM, 24 hrs, n=4, qPCR normalized by B2M, read-out: GADD45A Normalized fold change): 2.11
fold induction at 10 µM ([2]; WI-38 cells, 10 μM, 24 hrs, n=4, qPCR normalized by B2M, read-out: SESN1 Normalized fold change): 2.16
fold induction at 10 µM ([2]; fold change, qPCR, WI-38 cells, 10 μM, 24 hrs, read-out: Summary of effects on FOXO3-regulated genes: CAT): 1.37
fold induction at 10 µM ([2]; fold change, qPCR, WI-38 cells, 10 μM, 24 hrs, read-out: Summary of effects on FOXO3-regulated genes: DDB1): 1.41
fold induction at 10 µM ([2]; fold change, qPCR, WI-38 cells, 10 μM, 24 hrs, read-out: Summary of effects on FOXO3-regulated genes: GADD45A): 2.11
fold induction at 10 µM ([2]; fold change, qPCR, WI-38 cells, 10 μM, 24 hrs, read-out: Summary of effects on FOXO3-regulated genes: SESN1): 2.16
fold induction at 10 µM ([2]; qPCR, WI-38 cells, 10 μM, n=4, 24 hrs, normalized by B2M, read-out: CAT Normalized fold change): 1.37
fold induction at 10 µM ([2]; qPCR, WI-38 cells, 10 μM, n=4, 24 hrs, normalized by B2M, read-out: SOD2 Normalized fold change): 1.2
fold induction at 10 µM ([2]; qPCR, WI-38 cells, 10 μM, n=4, 24 hrs, normalized by B2M, read-out: TXNIP Normalized fold change): 1.09
Summary of effects on FOXO3-regulated genes: SOD2 ([2]; fold change, qPCR, WI-38 cells, 10 μM, 24 hrs): SOD2 1.20,
K = Sestrin induction ([2]; score): 1
E = Potential FOXO3 Activation ([2]; summary score): 0
Induction of at least two NRF2-regulated genes (HMOX1, NQO1, GCLC, GSTM1) ([3]; 10 μM, 24 hrs, WI-38): could induce both FOXO3- and NRF2-regulated genes
F = Potential NRF2 Activation ([3]; 2-point score): 2
Potential NRF2 Activation (>=2 target genes induced, by >=1.5-fold) ([3]; Assay 13(p)): YES
fold induction at 10 µM ([3]; 24 h, Assay 12(o), at 10 uM, qPCR, read-out: Induction of NRF2-regulated genes: GSTM1 normalized fold-change): 1.52
fold induction at 10 µM ([3]; 24 h, Assay 12(o), at 10 uM, qPCR, read-out: Induction of NRF2-regulated genes: HMOX1 normalized fold-change): 4.55
fold induction at 10 µM ([3]; 24 h, Assay 12(o), at 10 uM, qPCR, read-out: Induction of NRF2-regulated genes: NQO1 normalized fold-change): 2.56
fold induction at 10 µM ([3]; rounded fold change, WI-38 cells, 10 μM, 24 hrs (RP11 for Gr-1D, RP29 for Gr-4D), read-out: Summary of effects on NRF2-regulated genes: HMOX1): 4.55
fold induction at 10 µM ([3]; rounded fold change, WI-38 cells, 10 μM, 24 hrs (RP29 for Gr-4D), read-out: Summary of effects on NRF2-regulated genes: GSTM1): 1.52
fold induction at 10 µM ([3]; rounded fold change, WI-38 cells, 10 μM, 24 hrs (RP29 for Gr-4D), read-out: Summary of effects on NRF2-regulated genes: NQO1): 2.56
fold induction at 10 µM ([3]; 10 μM, 24 hrs, WI-38, read-out: Expression of at least two NRF2 target genes): > 1.5
fold induction at 10 µM ([3]; 10 μM, 24 hrs, WI-38 cells, qPCR, normalized to B2M, n = 4, read-out: GSTM1 expression, normalized fold change (NRF2-regulated gene)): 1.52
fold induction at 10 µM ([3]; 10 μM, 24 hrs, WI-38 cells, qPCR, normalized to B2M, n = 4, read-out: HMOX1 expression, normalized fold change (NRF2-regulated gene)): 4.55
fold induction at 10 µM ([3]; 10 μM, 24 hrs, WI-38 cells, qPCR, normalized to B2M, n = 4, read-out: NQO1 expression, normalized fold change (NRF2-regulated gene)): 2.56
fold induction at 10 µM ([3]; WI-38 cells, 10 μM, 24 hrs, n=4, qPCR normalized by B2M, read-out: GCLC Normalized fold change): 0.863
fold induction at 10 µM ([3]; WI-38 cells, 10 μM, 24 hrs, n=4, qPCR normalized by B2M, read-out: GSTM1 Normalized fold change): 1.52
fold induction at 10 µM ([3]; WI-38 cells, 10 μM, 24 hrs, n=4, qPCR normalized by B2M, read-out: HMOX1 Normalized fold change): 4.55
fold induction at 10 µM ([3]; WI-38 cells, 10 μM, 24 hrs, n=4, qPCR normalized by B2M, read-out: NQO1 Normalized fold change): 2.56
Summary of effects on NRF2-regulated genes: HMOX1, second run ([3]; run RP42 (Gr-1D) / RP52 (Gr-4D), WI-38 cells, 10 μM): 2.40,
Summary of effects on NRF2-regulated genes: NQO1, second run ([3]; run RP52 (Gr-4D), WI-38 cells, 10 μM): 1.49,
F = Potential NRF2 Activation ([3]; summary score): 2
relative change of mean lifespan vs control, Trial 6 (confirmative) ([4]; 60 μM, on plate, temperature-sensitive sterile animals, without FuDR, 1.0 × 10^11 bacteria/ml): +11.1%
relative change of mean lifespan vs control, Trial 5 (confirmative) ([4]; 60 μM, on plate, temperature-sensitive sterile animals, without FuDR, 2.0 × 10^10 bacteria/ml): +39.4%
Lifespan, average increase ([4]; 4 or more trials): 24.0%
ILS at 60 µM ([4]; 60 μM, in liquid, wild type, with FuDR, 1.0 × 10^9 bacteria/ml, read-out: relative change of mean lifespan vs control, Trial 1): 50.8%
ILS at 60 µM ([4]; 60 μM, in liquid, wild type, with FuDR, 2.5 × 10^9 bacteria/ml, read-out: relative change of mean lifespan vs control, Trial 2): 9%
ILS at 60 µM ([4]; 60 μM, on plate, CF512 temperature-sensitive sterile animals, without FuDR, 1.0 × 10^11 bacteria/ml, read-out: relative change of mean lifespan vs control, Trial 4): 11.3%
ILS at 60 µM ([4]; 60 μM, on plate, CF512 temperature-sensitive sterile animals, without FuDR, 2.0 × 10^10 bacteria/ml, read-out: relative change of mean lifespan vs control, Trial 3): 22.2%
ILS at 66 µM ([4]; Assay 2(z), 1.0 × 10^9 bacteria/ml, wild type + FuDR (2012 July), read-out: Lifespan assay in liquid): 50.8%
ILS at 66 µM ([4]; Assay 3(aa), 2.5 × 10^9 bacteria/ml, wild type + FuDR, read-out: Lifespan assay in liquid): 9%
ILS at 66 µM ([4]; Assay 4(ab), 2.0 × 10^10 bacteria/ml, CF512 worms, no FuDR, read-out: Lifespan assay on plates): 22.2%
ILS at 66 µM ([4]; Assay 5(ac), 1.0 × 10^11 bacteria/ml, CF512 worms, no FuDR, read-out: Lifespan assay on plates): 11.3%
ILS at 66 µM ([4]; Assay 6(ad), 2.0 × 10^10 bacteria/ml, CF512 worms, no FuDR, read-out: Lifespan assay on plates): 39.4%
ILS at 66 µM ([4]; Assay 7(ae), 1.0 × 10^11 bacteria/ml, CF512 worms, no FuDR, read-out: Lifespan assay on plates): 11.1%
Lifespan extension of C. elegans ([4]; across independent trials): ≤ 50%
Extension of C. elegans' lifespan (qualitative) ([4]; in at least 3 to 4 trials, group range ~10% to ~50%): could extend animal's lifespan
Trials with lifespan extension ([4]; positive of total trials): 4 of 4
O = Life span- extending scores in worms ([4]; score scale 0 to 2, 4 to 6 independent trials): 2 (2 for observed in more than 2 trials)
M = Lifespan-extending scores in worms ([4]; summary score): 2 (2 for observed in more than 2 trials)
Lifespan, mean (FIG. 6B) ([4]; temperature-sensitive sterile rollers, on plate, without FuDR, 25° C. then ~22° C., control 18.4±0.4): 22.5±0.4
Lifespan increase (FIG. 6A) ([4]; wild-type, in liquid, with FuDR, 20° C., ~60 μM): ~51.2%
Lifespan, mean±SD (FIG. 6A) ([4]; wild-type, in liquid, with FuDR, 20° C., ~60 μM, control 21.1±0.5): 31.9±1.1
Percentage of propidium iodide-positive dead cells (no H2O2 stress treatment), at 10 uM [5]: 0.42% ± 0.15%,
